According to ChEMBL document CHEMBL1201862, “PubChem BioAssay data set” (2004):
Several values for one entry are separate records, joined by “and”; a condition that tells them apart may be missing. Equal entries are not always repeated.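 Cultured in 96-well plates, cells were exposed to test compound for 48 hours across five concentrations. Here, GI50 denotes the concentration required for 50% inhibition of growth.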 Activity calls are given as the source filed them. No stated cut-off is given here; in the data, active = GI50 up to about 1.1 µM and inactive = higher.

Tests used:
Experiment in all cases: inhibition of tumour cell growth, NCI panel, 48 h
[1] = tested on: MCF7
[2] = tested on: RXF 393
[3] = tested on: Hs-578T
[4] = tested on: TK-10
[5] = tested on: CCRF-CEM
[6] = tested on: SK-MEL-2
[7] = tested on: OVCAR-5
[8] = tested on: EKVX
[9] = tested on: HL-60
[10] = tested on: UACC-62
[11] = tested on: IGROV-1
[12] = tested on: SK-MEL-28
[13] = tested on: SN12C
[14] = tested on: Malme-3M
[15] = tested on: UACC-257
[16] = tested on: SNB-19
[17] = tested on: LOX IMVI
[18] = tested on: CAKI-1
[19] = tested on: OVCAR-4
[20] = tested on: MDA-N
[21] = tested on: BT-549
[22] = tested on: HCT-15
[23] = tested on: SF-295
[24] = tested on: HCC 2998
[25] = tested on: PC-3
[26] = tested on: COLO 205
[27] = tested on: DU-145
[28] = tested on: U-251
[29] = tested on: OVCAR-3
[30] = tested on: K562
[31] = tested on: SR
[32] = tested on: MDA-MB-435
[33] = tested on: UO-31
[34] = tested on: OVCAR-8
[35] = tested on: SW-620
[36] = tested on: MOLT-4
[37] = tested on: KM12
[38] = tested on: SK-OV-3
[39] = tested on: NCI-H226
[40] = tested on: M14
[41] = tested on: ACHN
[42] = tested on: NCI-H23
[43] = tested on: HCT-116
[44] = tested on: HT-29
[45] = tested on: MDA-MB-231
[46] = tested on: HOP-92
[47] = tested on: SF-268
[48] = tested on: HOP-62
[49] = tested on: SK-MEL-5
[50] = tested on: NCI-H460
[51] = tested on: SNB-75
[52] = tested on: A549
[53] = tested on: 786-0
[54] = tested on: SF-539
[55] = tested on: RPMI-8226
[56] = tested on: NCI-H522
[57] = tested on: NCI/ADR-RES

Measured: GI50

N#Cc1c2c(c(-c3cccs3)n(C3OC(CO)C(O)C(O)C3O)c1=S)CCc1ccccc1-2 (stereo not given)
inactive: [1] 5.42 µM and 3.85 µM | [2] 24.3 µM and 23 µM | [3] 8.97 µM and 5.97 µM | [4] > 29 µM and > 20.8 µM | [5] > 57.8 µM and 36.8 µM | [6] > 100 µM and > 56.8 µM | [7] > 100 µM | [8] > 24.9 µM | [9] > 20.9 µM | [10] 5.64 µM and 7.8 µM | [11] 97.9 µM and > 86.3 µM | [12] > 100 µM | [13] > 26.7 µM and > 21.7 µM | [14] 66.2 µM and 35.6 µM | [15] > 43.8 µM and > 51.2 µM | [16] > 100 µM and 98.2 µM | [17] > 22.3 µM and > 22.2 µM | [18] 6.65 µM and 6.14 µM | [19] 29.8 µM and > 39 µM | [20] 6.4 µM and 4.23 µM | [21] > 100 µM | [23] 27.6 µM and 48.6 µM | [24] 59.8 µM and > 41.5 µM | [25] 46.3 µM and 28.4 µM | [26] 30 µM and 40 µM | [27] > 100 µM | [28] 37.2 µM and 21.4 µM | [29] 20.8 µM and 22.5 µM | [30] 6.58 µM and 4.93 µM | [31] 5.82 µM and 4.76 µM | [32] 3.36 µM and 3.44 µM | [33] 3.04 µM | [34] 97.5 µM and > 87.7 µM | [35] > 100 µM | [36] 8.32 µM and 14.3 µM | [37] > 45.6 µM and 38.2 µM | [38] 7.67 µM and 7.45 µM | [39] > 100 µM
7.03 µM and 6.32 µM: [22]

COc1ccc([C@H](NC(=O)c2ccccc2)[C@@H](O)C(=O)O[C@H]2C[C@@]3(O)C(OC(=O)c4ccccc4)C4[C@](C)(C(=O)[C@H](OC(C)=O)C(=C2C)C3(C)C)[C@@H](O)C[C@H]2OC[C@@]42OC(C)=O)cc1 (stereo not given in full)
0.366 µM: [22]
active: [40] 6.04 nM | [1] < 1 nM | [2] 41.2 nM | [3] < 1 nM | [4] 70.3 nM | [5] 1.84 nM | [6] 7.05 nM | [7] 0.182 µM | [8] 0.22 µM | [9] < 0.001 µM | [10] 1.36 nM | [41] 724 nM | [11] 3.44 nM | [12] 0.00593 µM | [13] 2.84 nM | [42] 2.36 nM | [14] 2.8 nM | [15] 5.42 nM | [16] 36.8 nM | [17] 1.2 nM | [18] 249 nM | [20] 4.68 nM | [21] 0.0299 µM | [43] < 1 nM | [44] < 1 nM | [23] 78.3 nM | [24] 3.01 nM | [25] 2.55 nM | [26] 2.74 nM | [27] 0.00248 µM | [28] 6.95 nM | [46] 58.6 nM | [47] 4.15 nM | [48] 15 nM | [30] 1.22 nM | [49] 2.44 nM | [31] 1.82 nM | [50] 9.31 nM | [51] < 1 nM | [52] 6.18 nM | [53] 38.9 nM | [54] 1.12 nM | [32] < 1 nM | [33] 0.126 µM | [55] < 1 nM | [34] 4.34 nM | [56] 2.27 nM | [35] 0.00508 µM | [36] 2.86 nM | [37] < 1 nM | [38] 1.17 nM | [39] 0.00673 µM
inactive: [19] 3.11 µM | [45] > 10 µM | [57] > 6.43 µM
